According to the NIST ThermoML archive (doi:10.1016/j.tca.2019.03.028):
Numbers after ± are expanded uncertainties.

Key:
[1] = relative permittivity at various frequencies (dimensionless); details: 293.15 K; 100 kPa; Liquid; Frequency=0.01 MHz; Coaxial cylinder capacitor
[2] = relative permittivity at various frequencies (dimensionless); wn = mass fraction of the nth substance listed; details: 293.15 K, 100 kPa, Liquid, Frequency=0.01 MHz, Coaxial cylinder capacitor

Row | relative permittivity ([2]; w2 = 0) | Compound | relative permittivity [1] | relative permittivity ([2]; w1 = 1) | also measured
1 |  | CC#N [acetonitrile] | 37.7 ± 1.7 |  | 
2 |  | CC#N [acetonitrile] + ClC(Cl)(Cl)Cl |  | 37.7 ± 1.7 | 
3 |  | CC#N [acetonitrile] + c1ccccc1 |  | 37.7 ± 1.7 | relative permittivity ([2]; w1 = 0.25): 10.21 ± 0.49; relative permittivity ([2]; w1 = 0.5): 19.8 ± 0.93; relative permittivity ([2]; w1 = 0.75): 28.5 ± 1.3
4 |  | c1ccccc1 [benzene] | 2.29 ± 0.13 |  | 
5 | 2.29 ± 0.13 | c1ccccc1 [benzene] + C1CCCCC1 |  |  | 
6 | 2.29 ± 0.13 | c1ccccc1 [benzene] + CC#N |  |  | 
7 |  | C1CCCCC1 [cyclohexane] | 2.02 ± 0.12 |  | 
8 |  | C1CCCCC1 [cyclohexane] + c1ccccc1 |  | 2.02 ± 0.12 | relative permittivity ([2]; w1 = 0.25): 2.2 ± 0.13; relative permittivity ([2]; w1 = 0.5): 2.13 ± 0.13; relative permittivity ([2]; w1 = 0.75): 2.07 ± 0.12
9 |  | ClC(Cl)(Cl)Cl [tetrachloromethane] | 2.23 ± 0.13 |  | 

Row | Compound | relative permittivity ([2]; w2 = 0) | relative permittivity [1] | relative permittivity ([2]; w1 = 1) | also measured
10 | ClC(Cl)(Cl)Cl [tetrachloromethane] + CC#N | 2.23 ± 0.13 |  |  | relative permittivity ([2]; w2 = 0.25): 14.96 ± 0.71; relative permittivity ([2]; w2 = 0.5): 25.7 ± 1.2; relative permittivity ([2]; w2 = 0.75): 34.2 ± 1.6
